The source of these data is paper PMC12621189, “Optimization of Selective and CNS Penetrant Alkyne-Based TREK Inhibitors: The Discovery and Characterization of ONO-9517601 (VU6022856) and ONO-7927846 (VU6024391)” (Journal of Medicinal Chemistry, 2025).

Data set [1] in a line: Plasma protein binding, mouse. The class given is in vitro ADME. As to conditions: mouse, plasma, pH 7.4, mouse plasma, bound; read-out: PPB mouse (converted). How it is done:
(§1) Plasma protein binding and Brain homogenate binding: Determination of fraction unbound (f u) in plasma was conducted in vitro via equilibrium dialysis using HTDialysis (HTD) membrane plates. The top half of the plate was filled with 100 uL of Dubelco’s Phosphate Buffered Saline, pH 7.4 (DPBS). Compounds were diluted into plasma from each species (5 µM final concentration), which was aliquoted in triplicate to the ‘bottom half’ of the prepared HTD plate wells. The HTD plate was sealed and incubated for 6 hours at 37 °C. Following incubation, each well (both top and bottom halves) were transferred (20 µL) to the corresponding wells of a 96-shallow-well (V-bottom) plate. The daughter plates were then matrix-matched (DPBS side wells received equal volume of plasma, and plasma side wells received equal volume of DPBS), and extraction solution (120 µL; acetonitrile containing 50 nM carbamazepine as IS) was added to all wells of both daughter plates to precipitate protein and extract test article. The plates were then sealed and centrifuged (3500 rcf) for 10 minutes at ambient temperature. Supernatant (60 µL) from each well of the daughter plates was then transferred to the corresponding wells of new daughter plates (96-shallow-well, V bottom) containing water (Milli-Q, 60 µL/well), and the plates were sealed in preparation for LC-MS/MS analysis (see LC-MS/MS analysis method below).
(§2) The unbound fraction (f u) was calculated following the equation below, and mean values for each species were calculated from 3 replicates. […]
(§3) Fraction unbound for both plasma and brain samples was determined using Equation 4.
(§4) Equation 4 Determination of fraction unbound in plasma. […]

Data set [2] is described as follows: Plasma protein binding, rat. It is filed as in vitro ADME. As to conditions: rat, plasma, pH 7.4, rat plasma, bound; read-out: PPB rat (converted). The procedure:
as §1, §2, §3, §4

Data set [3] can be described thus: Plasma protein binding, human (equilibrium dialysis). Conditions: pH 7.4, read-out: PPB human (converted). The class given is in vitro ADME. The procedure:
as §1, §2, §3, §4

Data set [4] in a line: Rat brain to plasma ratio (Kp, Kp,uu). Conditions: male, Sprague Dawley, brain and plasma, intravenous, 0.2 mg/kg; rat brain:plasma. It is filed as in vivo. The procedure:
Determination of brain to plasma ratio:
All animal study procedures were approved by the Institutional Animal Care and Use Committee and were conducted in accordance with the National Institutes of Health regulations of animal care covered in Principles of Laboratory Animal Care (National Institutes of Health). All rats were fasted overnight prior to testing.
For determination of the brain over plasma ratio (Kp), compounds were formulated in 8% ethanol, 32% PEG400 and 60% DMSO (v/v/v) and administered as a single 0.2 mg/kg IV dose (1 mL/kg) to male, Sprague Dawley rats (n = 1) via injection into a surgically-implanted jugular vein catheter. At 15 min post dosing, blood sample was collected into chilled, K2EDTA anticoagulant-fortified tube and immediately placed on wet ice. The blood sample was then centrifuged (1700 rcf, 5 minutes, 4 °C) to obtain plasma sample. At the same post-administration time point, whole brain sample was obtained by rapid dissection, rinsed with PBS, and immediately frozen in individual tissue collection box (dry ice). All brain and plasma samples were stored at -80 °C until […]
Sample Analysis: Concentrations in plasma and brain homogenates were quantified by liquid chromatography tandem mass spectrometry (LC-MS/MS). Whole brains were homogenized in 3 mL of 70:30 IPA:water in a mini bead beater for 3 min, and centrifuged at 3,500 g for 5 min. 5 uL of the supernatant was diluted in 15 uL of blank plasma for quantification of the analytes. Plasma samples were centrifuged at 3,500 g for 5 min. A standard curve was generated by diluting the analytes DMSO stocks with blank plasma to obtain a final concentration of 10,000 ng/ml followed by a serial dilution down to 0.5 ng/ml. Quality controls were generated by a serial dilution of the 5,000 ng/ml standard curve solution in blank plasma to obtain 3 concentrations of 500, 50, and 5 ng/ml. 20 uL of brain diluted in plasma, plasma, blank plasma, standard curve and QC samples were loaded in a V-bottom 96-well plate. 120 uL of acetonitrile containing 0.05 uM carbamazepine (internal standard) was added to each well and the plate was centrifuged at 3,500 g for 5 min. 60 uL of the supernatant of each well (protein free) was transferred to a new 96-well plate containing 60 uL of water. The plates were sealed for analysis by LC-MS/MS.
Plasma and brain tissue samples originating from in vivo studies were analyzed by electrospray ionization using an AB Sciex Q-TRAP 5500 (Foster City, CA) that was coupled to a Shimadzu LC-20AD pump (Columbia, MD) and a Leap Technologies CTC PAL auto-sampler (Carrboro, NC). Analytes were separated by gradient elution using a C18 column (3 x 50 mm, 3 mm; Fortis Technologies Ltd, Cheshire, UK) that was thermostated at 40 °C. HPLC mobile phase A was 0.1% formic acid in water (pH unadjusted); mobile phase B was 0.1% formic acid in acetonitrile (pH […]
min, with an isocratic hold for 0.5 min, before transitioning to 10% B over 0.05 min. The column was re-equilibrated (1 min) before the next sample injection. The total run time was 2.55 min, and the HPLC flow rate was 0.5 ml/min. The source temperature was set at 500 °C, and mass spectral analyses were performed using a Turbo-Ion spray source in positive ionization mode (5.0-kV spray voltage) and using multiple-reaction monitoring of transitions specific for the analytes. All data were analyzed using AB Sciex Analyst 1.5.1 software.
Brain plasma concentration ratio (Kp) was calculated by dividing brain concentration by plasma concentration for each animal. Unbound brain to unbound plasma concentration ratio (Kp,uu) is calculated using the following formula: Kp,uu = (Brain ng/g x brain fu)/(plasma ng/ml x plasma fu).
In-vitro determination of blood-brain barrier penetration potential
Blood-brain barrier penetration was determined using MDR1-MDCK cell monolayers by Absorption Systems, following their protocol. In short, compounds were incubated at […] final concentration on one side of the cell monolayer for 2 hours. […]

Data set [5] can be described thus: Rat in vivo PK (plasma clearance) in SAR tables. Conditions: read-out: Rat CLp.
Another data set concerns the target T1, human TREK-1 (hTREK-1) (Homo sapiens, UniProt O95069).
T1 construct: expressed in transfected cells
T1 sequence (O95069 1-426): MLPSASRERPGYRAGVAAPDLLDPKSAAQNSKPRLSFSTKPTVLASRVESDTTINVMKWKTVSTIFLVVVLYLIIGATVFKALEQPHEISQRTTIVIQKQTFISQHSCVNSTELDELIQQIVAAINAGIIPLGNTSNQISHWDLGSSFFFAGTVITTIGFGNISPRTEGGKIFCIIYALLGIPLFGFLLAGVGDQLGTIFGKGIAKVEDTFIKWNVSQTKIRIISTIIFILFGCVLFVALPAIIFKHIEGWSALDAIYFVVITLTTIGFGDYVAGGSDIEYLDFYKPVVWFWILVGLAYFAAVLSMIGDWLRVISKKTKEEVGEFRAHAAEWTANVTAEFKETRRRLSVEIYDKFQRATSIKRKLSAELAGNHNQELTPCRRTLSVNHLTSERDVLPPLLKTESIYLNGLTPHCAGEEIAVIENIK
Kind of data set: TREK-1 thallium flux assay (CHO-K1 cells stably expressing hTREK-1). The class given is cell-based. As to conditions: human TREK-1, thallium flux; read-out: h TREK-1 Tl+ IC50. In outline:
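Cells loaded with FluxOR dye were preincubated 10 min with test compound in 0.3% DMSO, then given thallium stimulus buffer. ΔRatio was fluorescence 25 s after thallium over pre-thallium baseline; % inhibition was normalised between vehicle and 10 μM reference blocker, and IC50 was fitted from concentration–response.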

On the set-up of data set [6]: method as in earlier work. Conditions: ref 24 (Tanaka et al., ACS Med. Chem. Lett. 2025); cited from earlier work.
For a further data set, the system named is MK-801 challenged mouse. Also noted: method as in earlier work. As to conditions: IP, ref 24 (Tanaka et al., ACS Med. Chem. Lett. 2025); cited from earlier work.
Details of data set [7]: method as in earlier work. As to conditions: ref 24 (Tanaka et al., ACS Med. Chem. Lett. 2025); cited from earlier work. The source holds these as a separate data set.
Details of data set [8]: method as in earlier work. As to conditions: ref 24 (Tanaka et al., ACS Med. Chem. Lett. 2025); cited from earlier work. The source holds these as a separate data set.
On the set-up of data set [9]: method as in earlier work. As to conditions: ref 24 (Tanaka et al., ACS Med. Chem. Lett. 2025); cited from earlier work. This is another data set of the same source.

The structures appear in SMILES notation. Bounds are passed on as bounds.

For `CC(=O)N[C@H]1CC[C@@H](n2ncc(Cl)c2C(=O)Nc2ncc(C#Cc3ccccc3)cc2C)CC1` [Compound 15f, 1-(cis-4-Acetamidocyclohexyl)-4-chloro-N-(3-methyl-5-(phenylethynyl)pyridin-2-yl)-1H-pyrazole-5-carboxamide], the figures for the fraction unbound at 6 h, 5 µM in [1], in [2] and in data set [3] were 0.008, 0.016 and 0.012, respectively. Moreover, the Kp at 15 min in [4] amounted to 0.97. Moreover, the clearance in data set [5] was 27.8 mL/min/kg. For the same compound, the IC50 on human TREK-1 (hTREK-1) came to 130 nM.
Consider `Cc1cc(C#Cc2ccc(F)cc2)cnc1NC(=O)c1cc(NC(=O)OC(C)(C)C)ccc1Cl` [Compound 5], for which the “brain homogenate binding rat” value in [6] is on record as over 99.9%. Further, the “MED, MK-801 mouse NOR” value in the data set with MK-801 challenged mouse is recorded as 10 mg/kg. The “brain homogenate binding mouse” value in [7] is given as 99.4%. Besides, the ChromatoLogD in data set [8] was 5.16. For the same compound, the aqueous solubility in data set [9] is under 5 µM.
